Results from patent US12063929B2, “3′-alkynyl abscisic acid derivatives as ABA antagonists” (University of Saskatchewan, priority 2018, dated 2024).

Tests used:
[1] = test system: wild and RIL lentil genotypes; assay: Seed germination in wild and RIL populations of lentil genotypes; assay type: in vivo, lentil (L. orientalis, L. nigricans and others)
Source text: (§1) Fifty four lentil genotypes were selected for the experiment based on the existing data on the number of days it takes them to emerge and days to flowering. The seeds of each genotype were scarified before sowing and subjected to 3 treatments. VWR 415 9 cm filter papers were placed inside VWR 100 mm plastic petri dishes. Each petri dish was labeled on both the top and the bottom. Ten seed from each line was place in a labelled petri dish. Each lentil or faba bean genotype was replicated 3 times and subjected to 3 treatments (total number of experimental petri dishes=531). Thus: • 1. ABA exemplary compound solution [10 μM exemplary ABA analog compound 1019 in 1% DMSO, 99% H2O (LL10.1014.1) NaSaH (SL-1-16-1-53)] • 2. No exemplary ABA analogue solution (1% DMSO, 99% H2O) • 3. Distilled water—control
(§2) Seven milliliters of either exemplary ABA analogue solution, solution with no exemplary ABA analogue or distill water (control) was added into the corresponding labelled petri dishes containing the 10 scarified lentil seeds. For faba, bean, 10 ml because of their large seed size. The petri dishes were placed in a dark cupboard. Two digital temperature and humidity loggers (Tinytag) were placed inside the cupboards to monitor environmental conditions.
Germination was considered for a seed when a tiny radicle at least 5 mm or greater had emerged from the seed. The number of seeds that germinated was counted and recorded at 48 and 96 hours; and at 7 days. Some of the genotypes of interest were photographed (AF-S Micro NIKKOR 60 mm 1:2.8G camera) for comparison purpose. However, an excel sheet showing all results is available. At 48 hours, a total of 22 genotypes and their replicates were selected from the petri dishes treated with exemplary compound and distilled water were transplanted into pots (for faba bean) and trays (for lentils) in order to assess the length of time they took to flower while the rest of the petri dishes were kept till the end of the experiment that lasted a week.
The average temperature in the cupboards was 22.5° C. (±0.3) while the relative humidity ranged from 52.4 to 80.7 percent for the duration of the experiment. Studies carried out by Linda Gorim and Devini De. Silva, University of Saskatchewan

[2] = test system: Canola seed (Nutrien PV200); assay: Canola seed germination assay; assay type: in vivo
Method: For each treatment 6 replicates of 40 seeds were plated into petri dishes lined with two filter papers and 10 mL of test solution. The covered dishes were stored at room temperature in the dark. Germinated seeds were counted every 2 days for 8 days. The following dosages were used when studying the effect of exemplary compounds on canola germination: control 1% DMSO. 10 μM ABA, 100 μM 1019, and 100 μM 1019 plus 10 μM ABA.

[3] = test system: Canary seed (CDC Bastia; 2018); assay: Canary seed germination assay; assay type: in vivo
[4] = test system: wheat; assay: Wheat radical elongation assay; assay type: in vivo; settings: 10 μM 1019 alone, 3.0 days post treatment (FIG. 11C)
Method: (§3) Seeds were surface sterilized by incubation in 10% bleach for 20 min with shaking, then rinsed four times with sterile water. Four ml of test solutions were pipetted into petri dishes (100×15 mm) that contain a single filter paper. Fifteen seeds were added to each dish. For rice, barely, and wheat, the experiment involved five treatments (5 μM ABA; 5 μM ABA+10 μM 1019; 10 μM 1019; water control; water+EtOH+NaOH control), with three replications per treatment. For sorghum, treatments were 10 μM ABA; 10 μM ABA+20 μM 1019; 20 μM 1019; water control; water+EtOH+NaOH control. Dishes were sealed with Parafilm, and incubated in the dark at room temperature. Radical length was measured daily post emergence using ImageJ software; shown are 3 days post treatment for barley, wheat and sorghum and 4.5 days post treatment for rice.

[5] = test system: Botrytis cinerea; assay: Pathogenicity test on detached Arabidopsis thaliana leaves; assay type: in vivo
[6] = test system: Soybean (AAC Edward; 2018); assay: Soybean germination assay; assay type: in vivo
Method: For each treatment 6 replicates of 10 seeds were plated into petri dishes lined with two filter papers and 10 mL of test solution. The covered dishes were stored at room temperature in the dark. Germinated seeds were counted over 24 hours. The following dosages were used when studying the effect of exemplary compounds of the application on soybean germination: control 1% DMSO. 10 μM ABA, 10 μM exemplary compound 1019, 100 um exemplary compound 1019, 10 μM exemplary compound 1019 plus 10 μM ABA and 100 uM exemplary compound 1019 plus 10 μM ABA.

[7] = test system: barley; assay: Barley radical elongation assay; assay type: in vivo; settings: 10 μM 1019 alone, 3.0 days post treatment (FIG. 11B)
Method: as §3

[8] = test system: Hard Red Spring wheat; assay: Hard Red Spring wheat seedling growth (root and shoot length); assay type: in vivo
Method: For each treatment 3 replicates of 10 seeds were plated into petri dishes lined with two filter papers and 10 mL of test solution. The covered dishes were stored at room temperature in the dark. At 72 hours, germinated seeds were scored for root length and shoot length. The following dosages were used when studying the effect of the exemplary ABA analogues of the application on wheat shoot and root growth: control 1% DMSO. 10 μM ABA, 10 μM 1019, 100 μM exemplary compound 1019, 10 μM exemplary compound 1019 plus 10 μM ABA […] and 100 μM exemplary compound 1019 plus 10 μM ABA […].

[9] = test system: faba bean; assay: Faba bean seed germination and flowering; assay type: in vivo; settings: 10 μM compound
Source text: as §1
as §2, with “Two digital temperature and humidity loggers (Tinytag) were placed inside the cupboards to monitor environmental conditions.” left out
Germination was considered for a seed when a tiny radicle at least 5 mm or greater had emerged from the seed. The number of seeds that germinated was counted and recorded at 48 and 96 hours; and at 7 days. […]

[10] = test system: rice; assay: Rice radical elongation assay; assay type: in vivo; settings: 10 μM 1019 alone, 4.5 days post treatment (FIG. 11A)
Method: as §3

CC1=C(C#Cc2ccccc2)C(=O)CC(C)(C)[C@@]1(O)/C=C/C(C)=C\C(=O)O [Compound 1019, (2Z,4E)-5-((S)-1-Hydroxy-2,6,6-trimethyl-4-oxo-3-(phenylethynyl)cyclohex-2-en-1-yl)-3-methylpenta-2,4-dienoic acid]
germination ([1]; L. nigricans IG-72551 seeds, at 2 days, 10 μM compound): 100%
germination ([1]; L. orientalis IG72770, day 2, 10 μM compound): 40%
germination ([1]; L. orientalis IG72770, day 3, 10 μM compound): 75%
germination ([1]; L. orientalis IG72770, day 4, 10 μM compound): 100%
germination uniformity between replicates ([1]; all genotypes that responded, 10 μM compound): eliminated the variable germination rates
days to flowering ([1]; lentil, transplanted at 48 hours, 10 μM compound): nor did it significantly affect
number of lentil genotypes that responded positively (improved germination rate) ([1]; of 54 lentil genotypes screened, over 4 days, 10 μM compound): 18
canola seed germination ([2]; 100 μM compound alone, compared to control): did not significantly affect
canola seed germination ([2]; 100 μM compound plus 10 μM ABA): restored to near control levels
canary seed germination ([3]; 10 μM compound plus 10 μM ABA, day 4): did not
canary seed germination ([3]; 100 μM compound plus 10 μM ABA, day 4): overcame inhibition
canary seed germination ([3]; compound alone, 10 μM or 100 μM): Neither concentration of exemplary compound 1019 affected germination
radical length (Least Square mean); radical elongation [4]: 2.386
disease lesions ([5]; 100 μM spray, 24 hours post inoculation (FIG. 14)): smaller lesions
disease development caused by B. cinerea ([5]; 100 μM spray, preliminary results): partially inhibits
symptom development ([5]; plants sprayed with 100 μM, versus mock control): slower
soybean seed germination ([6]; 10 and 100 μM compound in the presence of 10 μM ABA): overcame the inhibition
soybean seed germination ([6]; compound alone at 10 or 100 μM): did not affect
radical length (Least Square mean); radical elongation [7]: 2.83
root growth ([8]; 10 μM compound plus 10 μM ABA, 72 h (FIG. 9A)): restored root growth to close to control length
root growth ([8]; 100 μM compound alone, 72 h): not affected
shoot growth ([8]; 100 μM compound alone, 72 h): not inhibited
root growth ([8]; 100 μM compound plus 10 μM ABA, 72 h (FIG. 9A)): restored root growth to close to control length
shoot growth ([8]; compound plus 10 μM ABA, 72 h (FIG. 9B)): restored
germination rates [9]: no significant effect
days to flowering ([9]; transplanted at 48 hours): nor did it significantly affect
radical length (Least Square mean); radical elongation [10]: 1.036
